According to the NIST ThermoML archive (doi:10.1016/j.jct.2011.08.016):
Numbers after ± are expanded uncertainties.

Test: xn = mol fraction of the nth substance listed
Conditions: Liquid, Vibrating tube method

CCCCCCCCCC [decane] + CCCCCCCC
mass density (363.03 K, 7000 kPa, x2 = 0.0616): 682.5 ± 0.45 kg/m3
mass density (363.03 K, 8000 kPa, x2 = 0.0616): 683.6 ± 0.45 kg/m3
mass density (363.03 K, 9000 kPa, x2 = 0.0616): 684.68 ± 0.46 kg/m3
mass density (363.03 K, 10000 kPa, x2 = 0.0616): 685.7 ± 0.46 kg/m3
mass density (363.03 K, 10990 kPa, x2 = 0.0616): 686.75 ± 0.47 kg/m3
mass density (363.03 K, 12000 kPa, x2 = 0.0616): 687.8 ± 0.47 kg/m3
mass density (363.03 K, 13000 kPa, x2 = 0.0616): 688.75 ± 0.48 kg/m3
mass density (363.03 K, 14000 kPa, x2 = 0.0616): 689.77 ± 0.49 kg/m3
mass density (363.03 K, 15000 kPa, x2 = 0.0616): 690.77 ± 0.49 kg/m3
mass density (363.03 K, 16000 kPa, x2 = 0.0616): 691.73 ± 0.5 kg/m3
mass density (363.03 K, 17000 kPa, x2 = 0.0616): 692.68 ± 0.51 kg/m3
mass density (363.03 K, 18000 kPa, x2 = 0.0616): 693.63 ± 0.51 kg/m3
mass density (363.03 K, 19000 kPa, x2 = 0.0616): 694.55 ± 0.52 kg/m3
mass density (363.03 K, 20000 kPa, x2 = 0.0616): 695.46 ± 0.53 kg/m3
mass density (363.03 K, 21000 kPa, x2 = 0.0616): 696.37 ± 0.53 kg/m3
mass density (363.03 K, 22000 kPa, x2 = 0.0616): 697.23 ± 0.54 kg/m3
mass density (363.03 K, 23000 kPa, x2 = 0.0616): 698.12 ± 0.55 kg/m3
mass density (363.03 K, 24000 kPa, x2 = 0.0616): 699 ± 0.55 kg/m3
mass density (363.03 K, 25000 kPa, x2 = 0.0616): 699.81 ± 0.56 kg/m3
mass density (363.05 K, 1000 kPa, x2 = 0.2801): 670.18 ± 0.42 kg/m3
mass density (363.05 K, 2000 kPa, x2 = 0.2801): 671.39 ± 0.42 kg/m3
mass density (363.05 K, 3000 kPa, x2 = 0.2801): 672.48 ± 0.43 kg/m3
mass density (363.05 K, 4000 kPa, x2 = 0.2801): 673.67 ± 0.43 kg/m3
mass density (363.05 K, 5000 kPa, x2 = 0.2801): 674.81 ± 0.44 kg/m3
mass density (363.05 K, 6000 kPa, x2 = 0.2801): 675.97 ± 0.44 kg/m3
mass density (363.05 K, 7000 kPa, x2 = 0.2801): 677.07 ± 0.45 kg/m3
mass density (363.05 K, 8000 kPa, x2 = 0.2801): 678.19 ± 0.45 kg/m3
mass density (363.05 K, 9000 kPa, x2 = 0.2801): 679.28 ± 0.46 kg/m3
mass density (363.05 K, 10000 kPa, x2 = 0.2801): 680.35 ± 0.47 kg/m3
mass density (363.05 K, 10990 kPa, x2 = 0.2801): 681.42 ± 0.47 kg/m3
mass density (363.05 K, 12000 kPa, x2 = 0.2801): 682.49 ± 0.48 kg/m3
mass density (363.05 K, 13000 kPa, x2 = 0.2801): 683.53 ± 0.48 kg/m3
mass density (363.05 K, 14000 kPa, x2 = 0.2801): 684.56 ± 0.49 kg/m3
mass density (363.05 K, 15000 kPa, x2 = 0.2801): 685.57 ± 0.5 kg/m3
mass density (363.05 K, 16000 kPa, x2 = 0.2801): 686.57 ± 0.5 kg/m3
mass density (363.05 K, 17000 kPa, x2 = 0.2801): 687.56 ± 0.51 kg/m3
mass density (363.05 K, 18000 kPa, x2 = 0.2801): 688.51 ± 0.52 kg/m3
mass density (363.05 K, 19000 kPa, x2 = 0.2801): 689.47 ± 0.52 kg/m3
mass density (363.05 K, 20000 kPa, x2 = 0.2801): 690.38 ± 0.53 kg/m3
mass density (363.05 K, 21000 kPa, x2 = 0.2801): 691.33 ± 0.54 kg/m3
mass density (363.05 K, 22000 kPa, x2 = 0.2801): 692.19 ± 0.54 kg/m3
mass density (363.05 K, 23000 kPa, x2 = 0.2801): 693.06 ± 0.55 kg/m3
mass density (363.05 K, 24000 kPa, x2 = 0.2801): 693.94 ± 0.56 kg/m3
mass density (363.05 K, 25000 kPa, x2 = 0.2801): 694.78 ± 0.57 kg/m3
mass density (363.07 K, 1000 kPa, x2 = 0.7736): 654.79 ± 0.42 kg/m3
mass density (363.07 K, 1000 kPa, x2 = 0.9623): 647.67 ± 0.43 kg/m3
mass density (363.07 K, 2000 kPa, x2 = 0.7736): 656.13 ± 0.43 kg/m3
mass density (363.07 K, 2000 kPa, x2 = 0.9623): 649.03 ± 0.43 kg/m3
mass density (363.07 K, 3000 kPa, x2 = 0.7736): 657.39 ± 0.43 kg/m3
mass density (363.07 K, 3000 kPa, x2 = 0.9623): 650.38 ± 0.44 kg/m3
mass density (363.07 K, 4000 kPa, x2 = 0.7736): 658.68 ± 0.44 kg/m3
mass density (363.07 K, 4000 kPa, x2 = 0.9623): 651.7 ± 0.44 kg/m3
mass density (363.07 K, 5000 kPa, x2 = 0.7736): 659.92 ± 0.45 kg/m3
mass density (363.07 K, 5000 kPa, x2 = 0.9623): 652.98 ± 0.45 kg/m3
mass density (363.07 K, 6000 kPa, x2 = 0.7736): 661.18 ± 0.45 kg/m3
mass density (363.07 K, 6000 kPa, x2 = 0.9623): 654.25 ± 0.45 kg/m3
mass density (363.07 K, 7000 kPa, x2 = 0.7736): 662.38 ± 0.46 kg/m3
mass density (363.07 K, 7000 kPa, x2 = 0.9623): 655.52 ± 0.46 kg/m3
mass density (363.07 K, 8000 kPa, x2 = 0.7736): 663.57 ± 0.46 kg/m3
mass density (363.07 K, 8000 kPa, x2 = 0.9623): 656.76 ± 0.47 kg/m3
mass density (363.07 K, 9000 kPa, x2 = 0.7736): 664.75 ± 0.47 kg/m3
mass density (363.07 K, 9000 kPa, x2 = 0.9623): 658 ± 0.47 kg/m3
mass density (363.07 K, 10000 kPa, x2 = 0.7736): 665.92 ± 0.48 kg/m3
mass density (363.07 K, 10000 kPa, x2 = 0.9623): 659.23 ± 0.48 kg/m3
mass density (363.07 K, 10990 kPa, x2 = 0.7736): 667.06 ± 0.48 kg/m3
mass density (363.07 K, 10990 kPa, x2 = 0.9623): 660.42 ± 0.49 kg/m3
mass density (363.07 K, 12000 kPa, x2 = 0.7736): 668.19 ± 0.49 kg/m3
mass density (363.07 K, 12000 kPa, x2 = 0.9623): 661.58 ± 0.49 kg/m3
mass density (363.07 K, 13000 kPa, x2 = 0.7736): 669.32 ± 0.5 kg/m3
mass density (363.07 K, 13000 kPa, x2 = 0.9623): 662.75 ± 0.5 kg/m3
mass density (363.07 K, 14000 kPa, x2 = 0.7736): 670.41 ± 0.5 kg/m3
mass density (363.07 K, 14000 kPa, x2 = 0.9623): 663.87 ± 0.51 kg/m3
mass density (363.07 K, 15000 kPa, x2 = 0.7736): 671.49 ± 0.51 kg/m3
mass density (363.07 K, 15000 kPa, x2 = 0.9623): 664.99 ± 0.51 kg/m3
mass density (363.07 K, 16000 kPa, x2 = 0.7736): 672.56 ± 0.52 kg/m3
mass density (363.07 K, 16000 kPa, x2 = 0.9623): 666.07 ± 0.52 kg/m3
mass density (363.07 K, 17000 kPa, x2 = 0.7736): 673.6 ± 0.52 kg/m3
mass density (363.07 K, 17000 kPa, x2 = 0.9623): 667.17 ± 0.53 kg/m3
mass density (363.07 K, 18000 kPa, x2 = 0.7736): 674.63 ± 0.53 kg/m3
mass density (363.07 K, 18000 kPa, x2 = 0.9623): 668.2 ± 0.54 kg/m3
mass density (363.07 K, 19000 kPa, x2 = 0.7736): 675.61 ± 0.54 kg/m3
mass density (363.07 K, 19000 kPa, x2 = 0.9623): 669.26 ± 0.54 kg/m3
mass density (363.07 K, 20000 kPa, x2 = 0.7736): 676.63 ± 0.55 kg/m3
mass density (363.07 K, 20000 kPa, x2 = 0.9623): 670.29 ± 0.55 kg/m3
mass density (363.07 K, 21000 kPa, x2 = 0.7736): 677.57 ± 0.55 kg/m3
mass density (363.07 K, 21000 kPa, x2 = 0.9623): 671.3 ± 0.56 kg/m3
mass density (363.07 K, 22000 kPa, x2 = 0.7736): 678.47 ± 0.56 kg/m3
mass density (363.07 K, 22000 kPa, x2 = 0.9623): 672.27 ± 0.57 kg/m3
mass density (363.07 K, 23000 kPa, x2 = 0.7736): 679.43 ± 0.57 kg/m3
mass density (363.07 K, 23000 kPa, x2 = 0.9623): 673.14 ± 0.58 kg/m3
mass density (363.07 K, 24000 kPa, x2 = 0.7736): 680.34 ± 0.58 kg/m3
mass density (363.07 K, 24000 kPa, x2 = 0.9623): 674.08 ± 0.58 kg/m3
mass density (363.07 K, 25000 kPa, x2 = 0.7736): 681.28 ± 0.58 kg/m3
mass density (363.07 K, 25000 kPa, x2 = 0.9623): 674.98 ± 0.59 kg/m3
